Measurements reported in patent US8158682B2, “Instillation administration of capsaicinoids for the treatment of pain” (Vallinex, Inc., priority 2008, dated 2012).
“And” between values parts separate entries of the source, which are not always exact repeats. Equal entries are not always repeated. “Also recorded” adds a separate entry of the source.

Tests used:
rat paw incision model [1] = test: Rat paw incision model, postsurgical thermal hyperalgesia (thermal paw withdrawal latency); assay type: in vivo; conditions: for ED10 / ED20 / ED50: analgesic intensity, thermal hyperalgesia; for ED50: 5 minute intraoperative instillation
Procedure: (§1) Male Sprague-Dawley rats (Chrales River Laboratories, Inc., Wilimington, Mass., 225-250 g) were anesthetized with 2% isoflurane delivered via nose cone. Ten to 15 minutes before surgery, 100 μL of 2% lidocane was injected in the plantar surface of the right hind paw. A 1 centimeter incision (number 15 scalpel blade) was make through the skin, muscle, and fascia of the anesthetized paw, starting 5 mm from the proximal edge of the heel and extending toward the toes. After elevating the incised tissue, 20 μL of capsaicin formulation or vehicle were instilled into the surgical incision, allowed to dwell for pre-specified times, and then removed via aspiration using a cotton swab. The incision was apposed with 4 single interrupted mattress sutures of 5-0 nylon thread.
(§2) Animals were tested on the day before surgery (baseline) and on days 1, 2, 3, and 6 after surgery. Thermal sensitivity was assessed by thermal paw withdrawal latency as described by Hargreaves et al. (Hargreaves et al., J. Pain 32:77-88 (1988)). Mechanical hyperalgesia was assessed by the “up-down” algorithm of Chaplan et al. (Chaplan et al., J. Neurosci. Methods 53:55-63 (1994)).
(§3) In this study, animals in the active treatment groups received an intraoperative instillation of capsaicin (5 μg per 20 μL 50% PEG-300) for the designated times. Animals in the control groups received 20 μL of 50% PEG-300 for 5 minutes (vehicle) or no intraoperative treatment (sham). Graph points represent mean values; error bars are ±SEM.
(§4) In the study, animals in the active treatment groups received 5 minute intraoperative instillations of capsaicin formulation (1.5 μg to 150 μg per 20 μL of 50% PEG-300). Animals in the control groups received 5 minute intraoperative instillations of 20 μL of 50% PEG-300 (vehicle) or 5 minute intraoperative instillations of 20 μL of 50% PEG-300 plus subcutaneous buprenorphine (50 μg/kg) 1 hour before behavioral testing (Bup). Bars represent mean values; error bars are ±SEM.
The experimental data from FIG. 2 were used to calculate analgesic intensity (AI) as follows: AI(%)=100×([PWLtreat−PWLbasal]/[cut-off−PWLbasal]), where PWLtreat was the paw withdrawal latency after capsaicin treatment, PWLbasal was the paw withdrawal latency on day 1 after vehicle treatment, and cut-of was 20 seconds. […] (CI=confidence interval)

rat paw incision model [2] = test: Rat paw incision model, postsurgical mechanical hyperalgesia (paw withdrawal threshold, up-down); assay type: in vivo
Procedure: as §1, §2
as §3, with “(vehicle).” for “(vehicle) or no intraoperative treatment (sham).”
as §4, with “In this” for “In the”, “capsaicin (5, 15, or 75” for “capsaicin formulation (1.5 μg to 150”, “or subcutaneous injection” for “or 5 minute intraoperative instillations”, “of” for “of 20 μL of 50% PEG-300 plus subcutaneous”
In this study, animals in the active treatment groups received 5 minute intraoperative instillations of capsaicin (5, 15, or 75 μg per 20 μL of 50% PEG-300). Animals in the control groups received 5 minute intraoperative instillations of 20 μL of 50% PEG-300 (vehicle). Graph points represent mean values; error bars are ±SEM.

sciatic nerve = test: Extrafascicular instillation on sciatic nerve: body weight, behavioral testing, nerve histology; assay type: in vivo, rat
Procedure: (§5) Adult CD Charles River rats were anesthetized with isoflurane and oxygen. Extrafascicular instillation: The sciatic nerve was exposed by blunt dissection and 100 μl of test article was applied directly to the sciatic nerve). Treatment groups received either vehicle (25% PEG 300), 0.0083 mg capsaicin (≧98% pure) or 0.025 mg capsaicin dissolved in vehicle. […] Osteotomy: The lateral aspect of the right femur was exposed and cut at the midshaft using an oscillating saw. An intramedullary Kirshner wire was inserted for fracture reduction and the osteotomy site irrigated with 100 μl of the vehicle (20% PEG 300, 10 mM histidine and 5% (w/v) sucrose) or 0.5 mg capsaicin diluted in vehicle.
Behavioral testing: Individual rats were placed in a black plexiglass observation box and parameters including posture, rearing, vocalization, bizarre behavior, mobility, and stereotypy were evaluated based on the methods of Moser et al. (Moser et al., Fundam. Appl. Toxicol. 11: 189-206 (1988)). Forelimb and hindlimb grip strength was measured using a strain gauge that recorded the maximum force in Kg as described by Meyer (Meyer et al. Neurobehav. Toxicol. 1:233-236 (1979) and Meyer and Ross (1966) U.S. Environmental Protection Agency, Wasington, D.C.) Hindlimb splay was quantitatively measured as described by Edwards et al. (Edwards et al., Toxicol Appl. Pharmacol. 40:589-591 (1977)). Thermal response was measured using the hot plate test as previously described by Ankier (Aniker Eur. J. Pharmacol. 27:1-4 (1974). The hot plate was set at 52° C. and the latency between placement of the animal on the heated surface and the first paw lick was recorded. The test was administered three times at predose and at days 3, 14 and 28 post-surgery and the values averaged.
(§6) Histology: Rats were euthanized by intraperitoneal injection of sodium pentobarbital (90 mg/Kg) followed by transcardiac perfusion with 0.9% saline then 3% paraformaldehyde and 3% glutaraldehyde in 0.1 M phosphate buffer. The entire length of sciatic nerve was embedded in paraffin or plastic and representative sections were taken from the treatment site and proximal and distal sites and stained with hematoxylin and eosin (H&E). Sections were scored for neuronal and myelin integrity, appearance and inflammation.
(§7) Statistics: Levene's test was used to assess homogeneity of group variances for each specified end point and for each data collection interval. If Levene's test was not significant (P>0.01), a pooled estimate of the variance (Means Square Error) was computed from a one-way analysis of variance (ANOVA) and utilized by Dunnett's comparison of each treatment group with the control group. If Levene's test was significant (P<0.01), comparisons with the control group were made using Welch's t-test with a Bonferroni correction.

osteotomy site = test: Femur osteotomy: histology and biomechanical testing (4-point bending); assay type: in vivo, rat
Procedure: as §5, §6
Biomechanical Testing: Both osteotomized and contralateral whole femurs were tested in 4-point bending with a servohydrolic material test system (858 Mini Bionix) to determine the material properties of the cortical bone. Peak load, energy to break (area under the curve) and stiffness were derived. Peak load was measured as the maximum height of the load-displacement curve, and stiffness was measured as the slope of the linear portion of the load-displacement curve.
as §7

[3] = cited from earlier work
[4] = intraoperative instillation, rat paw incision model
[5] = 0.5 mg, right femur, vs vehicle (FIG. 14)

## COc1cc(CNC(=O)CCCC/C=C/C(C)C)ccc1O [capsaicin, N-(4-hydroxy-3-methoxybenzyl)-8-methylnon-trans-6-enamide]
Rat paw incision model [1]; 1.5 μg to 150 μg per 20 μL 50% PEG-300, 5 minute instillation (FIG. 2)
  dose dependence of reduction of postsurgical thermal hyperalgesia: dose-dependant; also recorded: dose-dependent
Rat paw incision model [1]; 5 μg per 20 μL 50% PEG-300, instillation 5 or 10 minutes, post-surgical days 1, 2, 3, vs vehicle and sham (FIG. 1)
  postsurgical thermal hyperalgesia (PWL): significantly lower thermal hyperalgesia; also recorded: reduces postsurgical thermal hyperalgesia
Rat paw incision model [1]; day 1 after surgery
  ED10: 3.46 µg
  ED20: 7.77 µg
  ED50: 31.01 µg
Rat paw incision model [1]; day 2 after surgery
  ED10: 2.99 µg
  ED20: 8.38 µg
  ED50: 48.53 µg
Rat paw incision model [1]; day 3 after surgery
  ED10: 1.84 µg
  ED20: 6.09 µg
  ED50: 47.09 µg and 47.08 µg
Rat paw incision model [1]; [4]
  duration of sustained analgesia: up to 6 days
  potency against thermal versus mechanical hyperalgesia: higher potency against postsurgical thermal hyperalgesia than mechanical hyperalgesia
Rat paw incision model [2]; 5 μg per 20 μL 50% PEG-300, designated dwell times (FIG. 4)
  postsurgical mechanical hyperalgesia (PWT): did not reduce postsurgical mechanical hyperalgesia; also recorded: does not reduce postsurgical mechanical hyperalgesia
Rat paw incision model [2]; 75 μg, 5 minute instillation, vs vehicle (FIG. 5)
  postsurgical mechanical hyperalgesia (PWT): produced significant analgesic effects relative to vehicle; also recorded: reduces postsurgical mechanical hyperalgesia
Rat paw incision model [2]; 75 μg, 5 minute instillation, vs vehicle, days 1 and 3 (FIG. 6)
  postsurgical mechanical hyperalgesia (PWT) over time: greater after an instillation of 75 μg capsaicin formulation than vehicle; also recorded: reduces postsurgical mechanical hyperalgesia
Rat paw incision model [2]; 5, 15 or 75 μg per 20 μL 50% PEG-300, 5 minute instillation (FIG. 5)
  dose dependence of reduction of postsurgical mechanical hyperalgesia: dose-dependant
Sciatic nerve; 0.025 mg extrafascicular instillation, 3 days or 28 days post treatment, vs sham operated (FIG. 12)
  sciatic nerve histology (H&E), appearance: no difference in appearance
Sciatic nerve; extrafascicular instillation (FIG. 8)
  activity/arousal: does not effect activity/arousal
Sciatic nerve; extrafascicular instillation (FIG. 10)
  hindpaw splay: no effect on hindpaw splay
Sciatic nerve; extrafascicular instillation (FIG. 11)
  thermal withdrawal (hot plate, 52° C.): no effect on thermal withdrawal
Sciatic nerve; extrafascicular instillation, summary
  adverse effects on structural integrity of exposed nerve: no observable adverse effects
Sciatic nerve; extrafascicular instillation, first 10 post-operative days, vs sham-operated rats (FIG. 7)
  weight gain: reduces weight gain
Sciatic nerve; extrafascicular instillation, post operative days 3 and 14 (FIG. 9)
  hindpaw grip strength: decreases hindpaw grip strength
Osteotomy site; 0.5 mg vs vehicle (FIG. 13)
  osteotomy site histology (H&E): show no differences
Osteotomy site; [5]
  general integrity of bone structure (AUC, energy to break): no difference
  peak load: no difference
  stiffness: no difference
Osteotomy site; instillation, summary
  adverse effects on wound and bone healing following osteotomy: no observable adverse effects
[3]; alcohol, ether, benzene and chloroform
  solubility in organic solvents: freely soluble
[3]; water
  solubility in water: practically insoluble
